These results are taken from PMC7279487, “Dual Target Ligands with 4-tert-Butylphenoxy Scaffold as Histamine H3 Receptor Antagonists and Monoamine Oxidase B Inhibitors” (International Journal of Molecular Sciences, 2020).

The target in data set [1] is hH3R. Particulars: cited from earlier work.
Data set [2] is described as follows: toxicity in HEK-293 cells (EZ4U). Type of data set: cell-based, human. Particulars: human, HEK-293 cells; reference doxorubicin at 0.2 and 0.05 µM; 48 h incubation; read-out: HEK-293 cell viability. The procedure:
(§1) The used reference cytostatic drug doxorubicin (DX) decreased cell viability <50% under the same conditions at very low concentrations of 0.2 and 0.05 µM. […] Oxidative damage was induced by very high toxic levels of hydrogen peroxide (H2O2; 300 µM), the popular cell model for PD research, in neuroblastoma SH-SY5Y cell line. […] Salsolinol (SAL) was used at a concentration of 50 µM as the reference compound with the proven neuroprotection activity.
The HEK-293 cells were seeded at a concentration of 1.5 × 10^4 cells/well in 200 μL culture medium and incubated for 24 h at 37 °C and 5% CO2. […] Then, 25 μL EZ4U labelling mixture (Biomedica, Vienna, Austria) was added and the cells were incubated for 2 h. The spectrophotometric absorbance of the samples was measured using a microplate reader (EnSpire, PerkinElmer, Waltham, MA, USA) at 492 nm. All measurements were performed in triplicate, and results are shown as mean ± SD.

The target of data set [3] is T1, human histamine H3 receptor (hH3R) (Homo sapiens, UniProt Q9Y5N1).
T1 construct: expressed in transfected cells
T1 sequence (Q9Y5N1 whole entry): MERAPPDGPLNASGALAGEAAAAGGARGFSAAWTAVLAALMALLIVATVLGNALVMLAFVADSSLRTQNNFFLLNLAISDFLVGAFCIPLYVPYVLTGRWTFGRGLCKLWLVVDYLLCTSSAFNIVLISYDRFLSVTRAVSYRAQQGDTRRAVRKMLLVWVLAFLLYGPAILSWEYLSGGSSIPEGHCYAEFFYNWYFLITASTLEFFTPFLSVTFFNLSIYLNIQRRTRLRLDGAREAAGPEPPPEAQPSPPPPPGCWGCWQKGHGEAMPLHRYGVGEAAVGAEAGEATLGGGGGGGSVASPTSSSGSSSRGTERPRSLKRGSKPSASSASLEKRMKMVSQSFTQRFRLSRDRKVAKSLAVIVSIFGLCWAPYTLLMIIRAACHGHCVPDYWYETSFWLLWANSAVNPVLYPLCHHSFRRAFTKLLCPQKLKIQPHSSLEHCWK
The experiment in a line: radioligand displacement binding assay, [3H]Nα-methylhistamine, HEK293 cells stably expressing hH3R. Particulars: HEK293 cells stably expressing human H3R, mean (95% CI). The procedure: [^3H]N^α-methylhistamine was used as a radioligand.
The radioligand displacement binding assay was carried out in HEK-293 cells stably expressing the recombinant hH3R as described by Kottke et al. with slight modifications. […] Obtained data from at least three experiments (in at least duplicates) were analyzed with GraphPad Prism 6.1 (San Diego, CA, USA) using nonlinear regression (one-site competition on logarithmic scale), and Ki values were transformed from IC50 according to Cheng-Prusoff. Statistical analysis was performed on −log Ki values.

In data set [4] the target is T2, hMAO B (Homo sapiens, UniProt P27338).
T2 construct: purchased Sigma Aldrich M7441
T2 sequence (P27338 1-520): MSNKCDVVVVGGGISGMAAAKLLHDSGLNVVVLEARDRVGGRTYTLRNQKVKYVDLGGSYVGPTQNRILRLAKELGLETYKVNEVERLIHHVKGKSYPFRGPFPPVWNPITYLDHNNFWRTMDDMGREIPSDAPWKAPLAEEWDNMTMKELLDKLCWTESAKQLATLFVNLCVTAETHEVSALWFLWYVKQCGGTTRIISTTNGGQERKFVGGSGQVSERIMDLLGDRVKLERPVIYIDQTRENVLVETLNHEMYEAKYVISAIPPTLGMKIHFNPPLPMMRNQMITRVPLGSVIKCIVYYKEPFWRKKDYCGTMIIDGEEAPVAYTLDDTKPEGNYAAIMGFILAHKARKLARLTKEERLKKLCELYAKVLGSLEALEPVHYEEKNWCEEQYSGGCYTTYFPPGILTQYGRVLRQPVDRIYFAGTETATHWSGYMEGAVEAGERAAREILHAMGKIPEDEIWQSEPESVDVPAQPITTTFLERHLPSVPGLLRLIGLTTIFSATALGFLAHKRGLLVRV
The experiment in a line: hMAO B inhibition, fluorometric Amplex Red MAO assay. Type of data set: biochemical.

For data set [5], the target named is T3, human MAO A (Homo sapiens, UniProt P21397).
T3 construct: purchased Sigma Aldrich M7316
T3 sequence (P21397 1-527): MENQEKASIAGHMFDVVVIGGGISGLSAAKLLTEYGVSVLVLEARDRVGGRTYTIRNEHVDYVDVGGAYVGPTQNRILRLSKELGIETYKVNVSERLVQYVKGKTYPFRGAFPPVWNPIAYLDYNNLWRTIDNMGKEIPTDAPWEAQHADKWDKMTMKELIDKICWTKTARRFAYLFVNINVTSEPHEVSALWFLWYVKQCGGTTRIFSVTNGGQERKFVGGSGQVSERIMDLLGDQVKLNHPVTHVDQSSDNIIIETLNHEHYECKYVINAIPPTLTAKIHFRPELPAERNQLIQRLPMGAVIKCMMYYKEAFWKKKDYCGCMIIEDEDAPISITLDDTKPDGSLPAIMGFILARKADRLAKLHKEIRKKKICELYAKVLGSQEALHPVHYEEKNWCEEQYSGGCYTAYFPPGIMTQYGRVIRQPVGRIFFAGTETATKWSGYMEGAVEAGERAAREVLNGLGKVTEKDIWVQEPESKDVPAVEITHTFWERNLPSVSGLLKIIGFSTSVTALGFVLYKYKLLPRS
The experiment in a line: hMAO A inhibition, fluorometric Amplex Red MAO assay. Type of data set: biochemical. Particulars: mean ± SEM; p-tyramine 200 μM. The method, then:
Inhibitory potency of compounds on MAO isoenzymes were carried out by a fluorometric method with a commercial Amplex™ Red Monoamine Oxidase Assay Kit (ThermoFisher Scientific A12214, Waltham, MA, USA) as described previously. For all tests, recombinant human MAO B and MAO A (from Sigma AldrichM7441 and M7316, Darmstadt, Germany) were used. Inhibitors’ activity was measured in the presence of p-tyramine (200 μM).
[…] […] All calculations were made in Microsoft Excel and GraphPadPrism software. All experiments were performed in duplicate, and data are expressed as mean ± SEM of 2–5 independent experiments.

The target in data set [6] is T2, hMAO B. The experiment in a line: hMAO B reversibility studies. Particulars: inhibitor at IC80. It is filed as biochemical. The method, then: Reversibility of MAO B inhibitors was tested as described previously with slight modification. Two experiments were performed simultaneously. In the first experiment, inhibitors (in concentrations corresponding to their IC80 values) were incubated with the enzyme and p-tyramine (10 μM) for 22 min (measuring fluorescence every two minutes).

The target of data set [7] is T2, hMAO B. The data set can be described thus: hMAO B kinetic studies (Michaelis-Menten, Lineweaver-Burk). Type of data set: biochemical. The method, then: Results from the kinetic experiment were used for determination of Michaelis–Menten curves (Figure 4A,C). […] From Michaelis–Menten curves, Vmax and KM values were fitted (Table 2). For both compounds, Vmax values decreased curvilinearly and KM values increased curvilinearly with the increased inhibitor concentrations.
The mode of the inhibition was tested according to the standard procedure described in Reversibility Studies using different concentrations of the substrate. […] Substrate was used in six concentrations: […], 0.1 mM, 0.5 mM, 1 mM, 1.5 mM, and 2 mM. After the experiment, velocities were calculated and put on the graph (y-axis) against the concentration of the substrate (x-axis). From the Michaelis–Menten plot Vmax, KM, and α values were calculated for different concentrations of the inhibitor. Double-reciprocal plot (Lineweaver–Burk plot) were prepared to display the data.
The α values for different modes of reversible inhibition as well as their diagnostic signature on […]
The α value for compound 9 was calculated by GraphPad Prism software from the nonlinear regression curves using following equation for mixed- […]
v = Vmax*[S] / [S]*(1+ [I]/ αKi) + KM*(1+ [I]/Ki) (1) v – velocity of enzyme reaction. Vmax - maximum velocity (at infinite substrate concentration); Ki – dissociation constant for Enzyme-Inhibitor complex (in the enzymology literature other symbols can be used such as: Ki, Kii , KEI etc.); αKi – dissociation constant for Enzyme-Substrate-Inhibitor complex (in the literature also under the symbols: Ki’, Kis and KES); KM – Michaelis-Menten constant; [I]– concentration of the inhibitor; [S] – concentration of the substrate [Ref S1].
Table S1. Relation between inhibition modality, α value, and diagnostic signature on the double-reciprocal plots (i.e Lineweaver-Burk plot) [S2].
α Inhibition modality Diagnostic signature on […]
α = 1 (inhibitor binds to free enzyme lines converge at the x-axis and enzyme-substrate complex
(inhibitor can bind to free lines converge to the left of the α > 1 enzyme and enzyme-substrate y-axis and above the x-axis complex unequally), inhibitor’s affinity is higher for free enzyme
(inhibitor can bind to free
α < 1 enzyme and enzyme-substrate lines converge to the left of the complex unequally), inhibitor’s y-axis and below the x-axis affinity is higher for the enzyme- […]
α → ∞ (inhibitor and substrate compete lines converge at the y-axis for the same site of binding) […]
α → 0 and α > 0 (inhibitor binds only to the parallel lines

Data set [8] deals with neuroblastoma SH-SY5Y cells. The data set can be described thus: neuroprotection in H2O2-treated SH-SY5Y cells (MTS). Type of data set: cell-based. Particulars: 50 µM; H2O2 300 µM; 24 h. The method, then: as §1
SH-SY5Y cells were seeded in microplate at a concentration of 2.5 × 10^4 cells/well in 100 μL culture medium and cultured for 24 h at 37 C and 5% CO2 to reach 70% confluence. […] (R,S)-salsolinol (purity ≥ 99%) was obtained from Cayman Chemical (Ann Arbor, MI, USA). Next, H2O2 was added at final concentration 300 μM and the cells were placed into the incubator. After 24 h of compounds co-incubation with H2O2, the CellTiter 96®AQueous Non-Radioactive Cell Proliferation Assay (MTS) labeling mixture was added to each well, and the microplates were incubated under the same conditions for 5 h. The absorbance was measured using a microplate reader EnSpire (PerkinElmer, Waltham, MA USA) at 490 nm. All measurements were performed in triplicate, and results are shown as mean ± SD.

The subject of data set [9] is AChE. More on the design: method as in PMID 28861918. Particulars: cited from earlier work.
In data set [10] the test system is BuChE. More on the design: method as in PMID 28861918. Particulars: cited from earlier work.
Setting [11] is: concentration used in kinetic studies.

Structures are written as SMILES. Read-outs that look alike come from different tables or passages of the source. Where only a bound is given, the exact number is not on record here.

A word on the Ki: it is a measure of affinity in units of concentration, obtained from inhibition or displacement. One may read the viability as the share of living cells, or the viability signal relative to a control. As a reminder, the IC20 is the concentration at which the effect reaches the 20% level. Read a low IC20 as greater potency. Broadly, the IC80 is the concentration at which the effect reaches the 80% level. The IC50 is the midpoint of a concentration-inhibition curve. Broadly, the melting point is the temperature of the solid-liquid transition.

For `CCC(C)(C)c1ccc(OCCCN2CCCC2)cc1` [Compound 3], the inhibition constant Ki in [1] (read-out: hH3R Ki) is 63 nM.

On to `O=C1/C(=C/c2ccc(OCCCN3CCCCC3)cc2)Cc2cc(OCc3ccc(Br)cc3)ccc21` [Compound 2], for which the Ki in [1] (read-out: hH3R Ki) was 6.5 nM.

For `COc1cccc2c1C(=O)c1c(O)c3c(c(O)c1C2=O)C[C@@](O)(C(=O)CO)C[C@@H]3O[C@H]1C[C@H](N)[C@H](O)[C@H](C)O1` [doxorubicin (DX), doxorubicin, reference compound], the viability at 48 h in [2] was less than 50%.

The molecule `CC1CCCCN1CCCOc1ccc(C(C)(C)C)cc1.O=C(O)C(=O)O` (stereo not drawn) [Compound 9, 1-(3-(4-tert-Butylphenoxy)propyl)-2-methylpiperidine hydrogen oxalate] yielded a melting point of 114 to 116 °C. Further, the Ki in [3] turned out to be 69 nM. In [4] (setting [11]), the IC20 turned out to be 0.2 nM and the 80% effect level (IC80) was put at 40 nM. In data set [4] (mean ± SEM of 2-5 independent experiments, p-tyramine 200 μM), this molecule returned a 50% inhibitory concentration (IC50) of 11 ± 1 nM. This molecule also had a 50% inhibitory concentration (IC50) in data set [5] greater than 10000 nM. In data set [6] (with vs without preincubation), the “effect of 30 min preincubation with enzyme on hMAO B inhibition” value was “did not show differences between experiments with and without the preincubation”. Further, in data set [6] (without preincubation, compared with safinamide and rasagiline), the “type of hMAO B inhibition (reversible or irreversible)” value is reported as “reversible”. Also, the “constant α” value in [7] (calculated by GraphPad Prism from nonlinear regression, mixed-model inhibition) is listed as 1.6. The “mode of hMAO B inhibition” value in data set [7] (from Vmax and KM behaviour and Lineweaver-Burk plot) was “mixed mode inhibition”. Also, the “Vmax (RFU/min)” value in data set [7] (inhibitor concentration 0.2 nM) was 1652 RFU/min. For the same molecule, in data set [7] (inhibitor concentration 10 nM), the “Vmax (RFU/min)” value was determined as 1544 RFU/min. Further, the “Vmax (RFU/min)” value in data set [7] (inhibitor concentration 40 nM) is on record as 1238 RFU/min.

On to `CC1NCCc2cc(O)c(O)cc21` (racemic) [SAL, (R,S)-salsolinol, reference compound], for which the “cell survival of H2O2-damaged SH-SY5Y cells (neuroprotection)” value in [8] is given as “statistically significant increased cells viability”.

`C#CCN(C)Cc1cc2cc(OCCCN3CCCCC3)ccc2n1C` [Contilisant]: the Ki in data set [1] (read-out: H3R Ki) is 11 nM. Also, the IC50 was 530 nM in [9] and 1690 nM in [10].

Turning to `C#CCNC1CCc2cc(OCCCN3CCCCC3)ccc21` (stereo not drawn) [Compound 1], in [1] (read-out: hH3R Ki), the Ki is 6.7 nM.
